Measured values: US8785452B2, “Anti-infective compounds” (priority 2008, dated 2014)
Where two headings read alike, the source gives them in different places.

Key:
[1] = test system: M. tuberculosis H37Rv-GFP; test: microbe, parasite or virus in culture; type: cell-based; conditions: Mycobacterium tuberculosis; for inhibition at 0.2 µM: read-out: QUM Confirm % Inhibition 0.2 uM; for inhibition at 2 µM: read-out: QUM Confirm % Inhibition 2 uM; for inhibition at 20 µM: read-out: QUM Confirm % Inhibition 20 uM
Raw264.7 cells = test: Cell number (CellNb) from image analysis of the phenotypic cell-based assay
[2] = test system: M. tuberculosis H37Rv-GFP; test: microbe, parasite or virus in culture; type: cell-based, Mycobacterium tuberculosis; conditions: Mycobacterium tuberculosis, H37RV, Macrophage; for inhibition at 0.2 µM: read-out: QIM Confirm % Inhibition 0.2 uM; for inhibition at 2 µM: read-out: QIM Confirm % Inhibition 2 uM
[3] = confirmation, 0.2 uM, intracellular
[4] = confirmation, 2 uM, intracellular
[5] = confirmation, 20 uM, read-out: QIM Confirm % Inhibition 20 uM
[6] = primary screen, 20 μM, read-out: Primary QIM % Inhibition

Structure (SMILES)	inhibition at 0.2 µM [1]	inhibition at 2 µM [1]	inhibition at 20 µM [1]	QIM Confirm CellNb 0.2 uM (Raw264.7 cells; confirmation, 0.2 uM)	QIM Confirm CellNb 2 uM (Raw264.7 cells; confirmation, 2 uM)	QIM Confirm CellNb 20 uM (Raw264.7 cells; confirmation, 20 uM)	Primary QIM CellNb (Raw264.7 cells; primary screen, 20 μM)	inhibition at 0.2 µM [2, 3]	inhibition at 2 µM [2, 4]	inhibition at 20 µM [2, 5]	inhibition at 20 µM [2, 6]	Primary QIM CellNb (Raw264.7 cells)	QIM Confirm CellNb 0.2 uM (Raw264.7 cells)	QIM Confirm CellNb 2 uM (Raw264.7 cells)	QIM Confirm CellNb 20 uM (Raw264.7 cells)	inhibition at 20 µM ([2]; read-out: Primary QIM % Inhibition)	inhibition at 0.2 µM [2]	inhibition at 2 µM [2]	inhibition at 20 µM ([2]; read-out: QIM Confirm % Inhibition 20 uM)
O=C(NN=C1CCCC1)c1ccncc1 [IPK 000 013 70]	46.3%	79.4%	67.6%	412.6	510.9	518.5	309.3	50.5%	98.1%	103%	88.3%								
O=C(N/N=C/c1ccccc1F)c1ccncc1 [IPK 000 013 71]	51.6%	92.2%	68.4%	476.5	544.3	377.4	358.8	86.3%	105%	97.5%	103%								
O=C(NN=C1CCCCC1)c1ccncc1 [IPK 000 013 72]	57.7%	73.9%	98%	448.5	541.6	457.3	355.5	63.2%	104%	101%	82.2%								
O=C(/C=C/c1ccc(Cl)cc1Cl)c1ccc(Cl)cc1 [IPK 000 015 36]	41.9%	59.4%	79.5%	331.0	286.0	168.0	146.5	15.8%	-4.8%	36.1%	38.1%								
c1ccc(COc2ccc(NCCc3ccncc3)cc2)cc1 [IPK 000 016 00]	47.1%	48.6%	68%	278.8	265.4	300.3	93.0	3.2%	19.4%	37.9%	-19%								
CCOC(=O)c1c(CSc2ccccc2)n(Cc2ccccc2)c2ccc(O)c(CN(C)C)c12 [IPK 000 016 05]	36.6%	42.5%	70%									192.0	206.8	148.9	282.0	67.9%	-2.2%	0.8%	43.4%
O=C(Oc1cccc2ncccc12)c1ccccc1F [IPK 000 018 65]	36.4%	54%	99%	256.6	218.3	256.4	218.0	28%	14%	39.2%	23.1%								
O=C(Oc1cccc2cccnc12)c1cccc([N+](=O)[O-])c1 [IPK 000 018 66]	39.3%	72%	99.6%	258.1	296.6	130.4	63.3	8.6%	0.4%	16.7%	-26.8%								
N#Cc1ccccc1NC(=O)CSc1nc2ccccc2s1 [IPK 000 018 97]	40.5%	33.9%	36.1%	288.5	299.8	553.9	314.0	7.3%	20%	83.8%	76.7%								
CC(C)(C)C(=O)Nc1ccccc1C(=O)N1CCOCC1 [IPK 000 021 87]	49.1%	42.9%	41.9%	305.3	403.4	609.0	405.0	15.4%	29.8%	96.5%	90.2%								
